Measured values from patent US20070244079A1, “PREVENTIVE/REMEDY FOR ALLERGIC DISEASES” (Ajinomoto Co., Inc., priority 2004, published 2007).

Legend:
[1] = system: ovalbumin-induced asthma model mice; experiment: Ovalbumin-induced asthma model mice: eosinophil count in BAL Fluid; type: in vivo, Balb/c mice
[2] = system: ovalbumin-induced pulmonary fibrosis model mice; experiment: Ovalbumin-induced pulmonary fibrosis model mice: hydroxyproline content in lung tissue; type: in vivo, Balb/c mice; settings: valine 15 g/L, dexamethasone 10 mg %, inhalation 40 minutes per day, day 21 to day 42; no treatment 28.7%
Description: Ovalbumin-induced pulmonary fibrosis model mice were induced by a conventional method using Balb/c mice, and the pulmonary fibrosis suppressive effect of coadministration of L-valine (free form) and dexamethasone by inhalation was investigated. 24 hours after antigen exposure on day 42, the lungs were extirpated from the pulmonary fibrosis model mice, and the hydroxyproline content in lung tissue was measured as an index of the degree of fibrosis. Valine (15 g/L) and dexamethasone (10 mg %) were aerosolized with a nebulizer and coadministered by inhalation (40 minutes per day) on consecutive days from day 21 to day 42. The results are expressed as increments (%) of the hydroxyproline content in each test group compared to the hydroxyproline content in the lung tissues from normal mice.

[3] = system: ovalbumin-induced pulmonary fibrosis model mice; experiment: Ovalbumin-induced pulmonary fibrosis model mice: airway resistance (Penh) after methacholine; type: in vivo, Balb/c mice; settings: valine 15 g/L, dexamethasone 10 mg %, inhalation 40 minutes per day, day 21 to day 42, no treatment 4.0
Description: Ovalbumin-induced pulmonary fibrosis model mice were induced by a conventional method using Balb/c mice, and the lung function reduction suppressive effect of coadministration of L-valine (free form) and dexamethasone by inhalation was investigated. 24 hours after antigen exposure on day 42, the pulmonary fibrosis model mice were allowed to inhale methacholine, which is a bronchial constriction inducer, and airway resistance (Penh) was measured using a Buxco whole body plethysmography. Valine (15 g/L) and dexamethasone (10 mg %) were aerosolized with a nebulizer and coadministered by inhalation (40 minutes per day) on consecutive days from day 21 to day 42.

[4] = system: ovalbumin-induced asthma model mice; experiment: Airway hypersensitivity test (methacholine, whole body plethysmography) in ovalbumin-induced asthma model mice; type: in vivo, Balb/c mice; settings: 3 mM aqueous solution, free water drinking day 0 to day 21; methacholine inhalation; asthma model mice 6.61
Description: After elapse of 24 hours following a third antigen exposure, the animals were allowed to inhale methacholine, which is an airway constricting substance, and an airway hypersensitivity test of the ovalbumin-induced asthma mice was performed using a whole body plethysmography. As an index of airway resistance, the Penh value was used. In the ovalbumin-induced asthma model mice, the Penh value was 6.61; in the group receiving a 3 mM aqueous solution of valine administered by the free water drinking method from day 0 to day 21, the Penh value decreased to 3.77.

[5] = system: Ovalbumin-immunized Balb/c mice; experiment: Cytokine productivity of isolated immune cells (lung macrophages co-cultured with splenocytes) from ovalbumin-immunized mice given valine; type: in vivo; settings: valine 3 mM free water drinking day 0 to day 11, co-cultured with splenocytes 48 hours, ELISA
Description: Ovalbumin-immunized Balb/c mice were given L-valine (free form), and changes in the cytokine productivity of isolated immune cells were examined, whereby the effect on the Th1/Th2 balance in a living organism's immune system was investigated. After a 3 mM aqueous solution of valine was prepared, it was administered by the free water drinking method from day 0 to day 11. […] On day 11, macrophages were isolated from the lungs and cultured in the presence of 1 mg/mL ovalbumin overnight, after which they were further co-cultured with splenocytes isolated from an ovalbumin-immunized mouse for 48 hours. After the cultivation, cytokines in the culture supernatant were measured by an ELISA method. […] With valine administration, an increase in the Th1 cytokine content and a reduction in the Th2 cytokine content were observed.

[6] = system: ovalbumin-induced asthma model mice; experiment: Cytokine concentrations in BAL Fluid (ELISA) of ovalbumin-induced asthma model mice; type: in vivo, Balb/c mice; settings: 0.6 mM aqueous solution, free water drinking day 0 to day 21
Description: After a 0.6 mM aqueous solution of valine was prepared, it was administered by the free water drinking method from day 0 to day 21. The IFN-γ/IL4 ratio increased from 5.8 for the control group to 8.0 for the valine administration group.

[7] = system: ovalbumin-induced asthma model mice; experiment: Lung tissue pathology (H/E staining), immune cell infiltration in ovalbumin-induced asthma model mice; type: in vivo, Balb/c mice; settings: valine 3 mM or ornithine hydrochloride 15 mM, free water drinking day 0 to day 21
Description: After elapse of 24 hours following a third antigen exposure, the lungs were extirpated from the mice and fixed in 10% formalin buffer solution, paraffin sections were prepared, and H/E staining was performed. […] Note that FIG. 7(a) is a lung tissue image of a normal mouse without asthma induction.

[8] = 0.6 to 15 mM aqueous solutions, free water drinking day 0 to day 21, 1st of 3 values (respectively), control 33
[9] = 0.6 to 15 mM aqueous solutions, free water drinking day 0 to day 21, 2nd of 3 values (respectively), control 33
[10] = 0.6 to 15 mM aqueous solutions, free water drinking day 0 to day 21, 3rd of 3 values (respectively), control 33

N=C(N)NCCC[C@H](N)C(=O)O [arginine, L-arginine]
eosinophil count in the BAL Fluid ([1]; 3 to 45 mM aqueous solutions, free water drinking day 0 to day 21, 1st of 3 values (respectively), control 45): 26000 µL⁻¹
eosinophil count in the BAL Fluid ([1]; 3 to 45 mM aqueous solutions, free water drinking day 0 to day 21, 2nd of 3 values (respectively), control 45): 25000 µL⁻¹
eosinophil count in the BAL Fluid ([1]; 3 to 45 mM aqueous solutions, free water drinking day 0 to day 21, 3rd of 3 values (respectively), control 45): 19000 µL⁻¹

C[C@@H]1C[C@H]2[C@@H]3CCC4=CC(=O)C=C[C@]4(C)[C@@]3(F)[C@@H](O)C[C@]2(C)[C@@]1(O)C(=O)CO [dexamethasone, reference compound]
increment of hydroxyproline content in lung tissue compared to normal mice [2]: 15.4%
Penh value (airway resistance) [3]: 4.1

NCC(=O)O [glycine]
eosinophil count in the BAL Fluid [1, 8]: 32000 µL⁻¹
eosinophil count in the BAL Fluid [1, 9]: 27000 µL⁻¹
eosinophil count in the BAL Fluid [1, 10]: 28000 µL⁻¹

CC[C@H](C)[C@H](N)C(=O)O [isoleucine, L-isoleucine]
eosinophil count in the BAL Fluid ([1]; 0.45 mM aqueous solution, free water drinking day 0 to day 21, control 20): 12000 µL⁻¹

CC(C)C[C@H](N)C(=O)O [leucine, L-leucine]
eosinophil count in the BAL Fluid ([1]; 0.9 mM aqueous solution, free water drinking day 0 to day 21, control 20): 7000 µL⁻¹

N[C@@H](CO)C(=O)O [serine]
eosinophil count in the BAL Fluid [1, 8]: 29000 µL⁻¹
eosinophil count in the BAL Fluid [1, 9]: 24000 µL⁻¹
eosinophil count in the BAL Fluid [1, 10]: 22000 µL⁻¹

CC(C)[C@H](N)C(=O)O [valine, L-valine]
increment of hydroxyproline content in lung tissue compared to normal mice [2]: 31%
Penh value (index of airway resistance) [4]: 3.77
IL-4 (pg/mL) Mean, culture supernatant [5]: 9.2 pg/mL
IFN-γ (pg/mL) Mean, culture supernatant ([5]; control 147.0): 341.1 pg/mL
effect on eosinophil count in the BAL Fluid compared to the control group ([1]; 15 mM, free water drinking started at first suction exposure (day 12)): no significant effect
eosinophil count in the BAL Fluid ([1]; 0.12 to 15 mM aqueous solutions, free water drinking day 0 to day 21, 1st of 4 values (respectively), control 36): 26000 µL⁻¹
eosinophil count in the BAL Fluid ([1]; 0.12 to 15 mM aqueous solutions, free water drinking day 0 to day 21, 2nd of 4 values (respectively), control 36): 23000 µL⁻¹
eosinophil count in the BAL Fluid ([1]; 0.12 to 15 mM aqueous solutions, free water drinking day 0 to day 21, 3rd of 4 values (respectively), control 36): 17000 µL⁻¹
eosinophil count in the BAL Fluid ([1]; 0.12 to 15 mM aqueous solutions, free water drinking day 0 to day 21, 4th of 4 values (respectively), control 36): 28000 µL⁻¹
eosinophil count in the BAL Fluid ([1]; 0.6, 3, or 15 g/L aqueous solution, oral by sonde 100 μL/time/animal twice a day, day 0 to day 21): decreased with dependence on the dose
eosinophil count in the BAL Fluid ([1]; 0.6 or 15 g/L aqueous solution, inhalation (nebulizer) once daily 30 minutes, 5 days/week, day 11 to day 21): decreased with dependence on the dose
IL-4 in BAL Fluid ([6]; ELISA, control 69.1): 120.7 pg/mL
IFN-γ in BAL Fluid ([6]; ELISA, control 403.8): 970.4 pg/mL
IFN-γ/IL-4 ratio in BAL Fluid ([6]; control 5.8): 8.0
lung tissue symptoms (immune cell infiltration, hypertrophy of bronchial epithelial cells, mucosa-producing cells, bronchial stenosis) [7]: all of the above-described symptoms were potently suppressed, and no bronchial stenosis was observed
Penh value (airway resistance) [3]: 4.0
